These results are taken from PubChem BioAssay (NCI).

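Where inhibition never reached the appropriate level, the endpoint shown equals the highest concentration tested. Otherwise, values were interpolated linearly from a five-concentration, 48-hour dose response in 96-well plates. GI50 marks 50% less growth. TGI marks complete inhibition of growth.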 A value given as a limit tells only on which side of the number the result lay.

Some test systems named below: CAKI-1 renal; COLO 205 colon; HOP-62 NSCLC; HT29 colon; OVCAR-4 ovarian; OVCAR-5 ovarian; SF-295 CNS; T-47D breast; TK-10 renal; U251 CNS.
Common to all, as to experiment: NCI-60 cell line screen, 48 h

For the molecule `O=C1C(Nc2ccc(Br)cc2)=C(I)C(=O)c2ncccc21`, the GI50 is 0.677 µM in the experiment on CAKI-1 renal; 1.19 µM with COLO 205 colon; 2.31 µM with HOP-62 NSCLC; 1.83 µM in the experiment with HT29 colon; 0.601 µM in the experiment with OVCAR-4 ovarian; 1.58 µM with OVCAR-5 ovarian. The GI50 in the experiment with SF-295 CNS is 7.56 µM; in the experiment with T-47D breast, 0.954 µM; in the experiment on TK-10 renal, 3.54 µM; with U251 CNS, 1.32 µM. Also, the TGI with CAKI-1 renal came out at 1.34 µM; in the experiment on COLO 205 colon, 3.49 µM; in the experiment with HOP-62 NSCLC it was 8.31 µM; in the experiment with HT29 colon, 9.19 µM; in the experiment on OVCAR-4 ovarian it was 1.24 µM; in the experiment with OVCAR-5 ovarian, 5.71 µM. Moreover, the TGI with SF-295 CNS was determined as 14.9 µM; in the experiment on T-47D breast it was 2.24 µM; with TK-10 renal, 9.74 µM; in the experiment with U251 CNS, 3.98 µM.

Consider `CCC(C)[C@H](NC(=O)NC(=O)NC(=O)CI)C(=O)OC` (some centres not stated), for which the GI50 in the experiment with CAKI-1 renal is 1.41 µM; in the experiment on COLO 205 colon it was 1.77 µM; in the experiment with HOP-62 NSCLC, 16.3 µM; with HT29 colon, 1.92 µM; in the experiment on OVCAR-4 ovarian, 2.48 µM; with OVCAR-5 ovarian, 15 µM. Moreover, the GI50 with SF-295 CNS was 15.2 µM; in the experiment on T-47D breast, 10 µM; in the experiment with TK-10 renal it was 2.96 µM; with U251 CNS, 14.8 µM. The TGI in the experiment with CAKI-1 renal was determined as 2.78 µM; in the experiment with COLO 205 colon it was 3.6 µM; in the experiment on HOP-62 NSCLC, 31.4 µM; in the experiment on HT29 colon it was 3.59 µM; with OVCAR-4 ovarian, 8.68 µM; with OVCAR-5 ovarian, 32.3 µM. Moreover, the TGI in the experiment with SF-295 CNS stood at 28.9 µM; in the experiment with T-47D breast, 34.8 µM; with TK-10 renal, 11.8 µM; with U251 CNS it was 27.9 µM.

As for `CC1SC2(CCC(c3ccccc3)CC2)N(NC(=O)c2[nH]c3ccc(F)cc3c2-c2ccccc2)C1=O` (configuration not stated), the GI50 in the experiment on CAKI-1 renal was 4.38 µM; in the experiment with COLO 205 colon it was 2.96 µM; in the experiment with HOP-62 NSCLC, 4.59 µM; with HT29 colon, 1.67 µM; in the experiment with OVCAR-4 ovarian, 3.87 µM; with OVCAR-5 ovarian, 18.5 µM. In addition, the GI50 is 12.1 µM in the experiment on SF-295 CNS, 14.2 µM with T-47D breast, 7.57 µM with TK-10 renal and 4.09 µM in the experiment on U251 CNS. The TGI came out at 24.5 µM in the experiment on CAKI-1 renal; 10.5 µM with COLO 205 colon; 23.5 µM with HOP-62 NSCLC; 4.18 µM with HT29 colon; 18.3 µM with OVCAR-4 ovarian; 43.8 µM in the experiment on OVCAR-5 ovarian. The TGI was 69 µM in the experiment on SF-295 CNS, more than 100 µM with T-47D breast, more than 100 µM with TK-10 renal and 24 µM in the experiment with U251 CNS.

Turning to `c1ccc(CN2CCC3(CC2)SSC2(CCN(Cc4ccccc4)CC2)SS3)cc1`, the TGI with CAKI-1 renal, in the experiment with COLO 205 colon, with HOP-62 NSCLC, with HT29 colon, in the experiment on OVCAR-4 ovarian and in the experiment on OVCAR-5 ovarian was more than 100 µM throughout. For the same molecule, the TGI with SF-295 CNS, in the experiment with T-47D breast, in the experiment with TK-10 renal and with U251 CNS was more than 100 µM in each case.

Take `CN1CC[C@]2(c3cccc(O)c3)CC(=O)/C(=C/c3ccccc3)[C@H]1C2`: the TGI in the experiment with CAKI-1 renal was found to be 9.93 µM; in the experiment on COLO 205 colon, 8.43 µM; in the experiment with HOP-62 NSCLC it was 10.8 µM; with HT29 colon it was 12.4 µM; in the experiment with OVCAR-4 ovarian it was 11 µM; in the experiment on OVCAR-5 ovarian, 16.1 µM. The TGI in the experiment on SF-295 CNS came to 17 µM; in the experiment on T-47D breast, 7.44 µM; in the experiment with TK-10 renal, 13.2 µM; in the experiment on U251 CNS, 9.92 µM. Besides, the GI50 in the experiment with COLO 205 colon is 3.06 µM; in the experiment with HOP-62 NSCLC, 3.21 µM; in the experiment with HT29 colon it was 3.59 µM; in the experiment with OVCAR-5 ovarian, 4.34 µM; in the experiment on SF-295 CNS, 4.5 µM; with T-47D breast, 2.57 µM. The GI50 in the experiment on TK-10 renal was 6.32 µM.

Regarding `CC[C@@H](C(=O)[C@H](C)[C@H](O)[C@@H](C)[C@H]1O[C@H]([C@@H](CC)C(=O)O)CC[C@H]1C)C1O[C@]2(C=C[C@@H](O)[C@]3(CC[C@@](C)([C@H]4CC[C@](O)(CC)[C@H](C)O4)O3)O2)[C@H](C)C[C@@H]1C` (some centres not stated), the GI50 was 0.637 µM in the experiment with CAKI-1 renal; 0.203 µM with COLO 205 colon; 0.532 µM in the experiment with HOP-62 NSCLC; 0.357 µM with HT29 colon; 0.821 µM in the experiment with OVCAR-4 ovarian; 1.07 µM in the experiment with OVCAR-5 ovarian. Besides, the GI50 is 0.474 µM in the experiment with SF-295 CNS, 0.125 µM in the experiment with T-47D breast, 1.68 µM in the experiment with TK-10 renal and 0.113 µM in the experiment with U251 CNS. Moreover, the TGI with CAKI-1 renal is 13.9 µM; in the experiment on COLO 205 colon, 4.68 µM; with HOP-62 NSCLC, 21.6 µM; in the experiment with HT29 colon, 30.2 µM; in the experiment with OVCAR-4 ovarian it was 44.8 µM; in the experiment with OVCAR-5 ovarian it was 69.2 µM. For the same molecule, the TGI in the experiment with SF-295 CNS was determined as 5.54 µM; in the experiment with T-47D breast, 16.7 µM; in the experiment on TK-10 renal, 83.1 µM; with U251 CNS it was 11.5 µM.

As for `CCOC(=O)c1ccc2c(c1)nc(/C=C/c1ccc(Cl)cc1)n2-c1cc(C(C)(C)C)[nH]n1`, the GI50 is 5.04 µM in the experiment with CAKI-1 renal; 28.6 µM in the experiment with COLO 205 colon; 5.24 µM with HOP-62 NSCLC; 11.3 µM in the experiment with HT29 colon; 1.9 µM with OVCAR-4 ovarian; 18.5 µM with OVCAR-5 ovarian. The GI50 with SF-295 CNS was 2.63 µM; in the experiment on T-47D breast it was 5.82 µM; with TK-10 renal, 3.11 µM; in the experiment on U251 CNS it was 3.28 µM. Further, the TGI is 61.2 µM in the experiment with CAKI-1 renal; more than 100 µM in the experiment on COLO 205 colon; 28.8 µM in the experiment on HOP-62 NSCLC; more than 100 µM in the experiment on HT29 colon; 7.31 µM in the experiment on OVCAR-4 ovarian; more than 100 µM in the experiment on OVCAR-5 ovarian. The TGI with SF-295 CNS came to 8.82 µM; in the experiment with T-47D breast, 52.4 µM; in the experiment on TK-10 renal it was 7.2 µM; in the experiment with U251 CNS, 13.2 µM.

For the molecule `NS(=O)(=O)c1ccc(NCc2cnc3ccccc3n2)cc1`, the TGI with CAKI-1 renal, with COLO 205 colon, with HOP-62 NSCLC, in the experiment with HT29 colon, in the experiment on OVCAR-4 ovarian and in the experiment on OVCAR-5 ovarian was more than 100 µM each time. The TGI in the experiment with SF-295 CNS, in the experiment on T-47D breast, with TK-10 renal and with U251 CNS was more than 100 µM each time.
